Data from US20240174622A1, “COMPOUND AND RADIOACTIVE LABELING COMPOUND” (NIHON MEDI-PHYSICS CO., LTD., priority 2021, published 2024).

What was measured:
[1] = system: LNCaP tumor-transplanted mouse; assay: Internal radioactivity distribution using LNCaP tumor-transplanted mouse; format: in vivo
Outline: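 Male SCID mice bearing subcutaneous LNCaP or PC-3 xenografts (40–60 days) received the 111In-labelled compound i.v. via tail vein (185–259 kBq in saline; n=2–3). Blood and organs collected at 1 to 192 hours post-dose, weighed and counted. Uptake expressed as %ID/g.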

LNCaP tumor = assay: SPECT/CT using LNCaP tumor-transplanted mouse; format: in vivo; conditions: 24 (and 48) hours after administration
Procedure: (§1) LNCaP tumor-implanted mice prepared by the method described above were administered saline solutions (1.9 to 3.0 MBq, 150 μL) of [^111In]In-PSMA-DA1 or [^111In]In-PSMA-DB from the tail vein. SPECT/CT was performed 24 and 48 hours after administration with FX3300 pre-clinical imaging system, which is manufactured by Gamma Medica-Ideas. Imaging was performed using a pinhole collimator with a diameter of 1.0 mm at a rotation radius of 35 mm, a projection time of 70 seconds, and the number of projections of 32 times under isoflurane anesthesia. After SPECT, CT (Tube voltage: 60 kV, Tube current: 350 μA) was performed. Image reconstruction was performed on the projection data of SPECT through three-dimensional ordered subset expectation maximization method (8 subsets, 5 iterations).
In the figure, the part indicated by the arrow is the location of the tumor, and the part indicated by the circle is the location of the kidney. The higher the SUV, the higher the radioactivity accumulation. […]
as §1, with “SPECT/CT” for “LNCaP tumor-implanted mice prepared by the method described above were administered saline solutions (1.9 to 3.0 MBq, 150 μL) of [^111In]In-PSMA-DA1 or [^111In]In-PSMA-DB from the tail vein. SPECT/CT”, “24, 48,” for “24”, “96” for “48”

Blood ([1]; 1 h after administration): 3.33 ± 0.21 % ID/g
Brain ([1]; 1 h after administration): 0.06 ± 0.01 % ID/g
Heart ([1]; 1 h after administration): 0.87 ± 0.33 % ID/g
Intestine ([1]; 1 h after administration): 0.59 ± 0.14 % ID/g
Kidney ([1]; 1 h after administration): 59.2 ± 35.2 % ID/g
LNCaP Tumor ([1]; 1 h after administration): 3.36 ± 0.04 % ID/g
Liver ([1]; 1 h after administration): 0.91 ± 0.20 % ID/g
Lung ([1]; 1 h after administration): 2.24 ± 0.60 % ID/g
Muscle ([1]; 1 h after administration): 0.23 ± 0.68 % ID/g
Pancreas ([1]; 1 h after administration): 0.74 ± 0.25 % ID/g
Spleen ([1]; 1 h after administration): 3.05 ± 0.53 % ID/g
Stomach (% ID) ([1]; 1 h after administration): 0.10 ± 0.04 % ID
Blood ([1]; 4 h after administration): 2.00 ± 0.29 % ID/g
Brain ([1]; 4 h after administration): 0.05 ± 0.00 % ID/g
Heart ([1]; 4 h after administration): 0.60 ± 0.08 % ID/g
Intestine ([1]; 4 h after administration): 1.05 ± 0.10 % ID/g
Kidney ([1]; 4 h after administration): 22.7 ± 9.69 % ID/g
LNCaP Tumor ([1]; 4 h after administration): 2.50 ± 0.50 % ID/g
Liver ([1]; 4 h after administration): 0.95 ± 0.05 % ID/g
Lung ([1]; 4 h after administration): 1.56 ± 0.07 % ID/g
Muscle ([1]; 4 h after administration): 0.21 ± 0.04 % ID/g
Pancreas ([1]; 4 h after administration): 0.54 ± 0.22 % ID/g
Spleen ([1]; 4 h after administration): 2.39 ± 0.05 % ID/g
Stomach (% ID) ([1]; 4 h after administration): 0.13 ± 0.03 % ID
Blood ([1]; 24 h after administration): 0.68 ± 0.17 % ID/g
Brain ([1]; 24 h after administration): 0.07 ± 0.02 % ID/g
Heart ([1]; 24 h after administration): 0.43 ± 0.07 % ID/g
Intestine ([1]; 24 h after administration): 1.00 ± 0.44 % ID/g
Kidney ([1]; 24 h after administration): 13.2 ± 2.41 % ID/g
LNCaP Tumor ([1]; 24 h after administration): 2.09 ± 0.39 % ID/g
Liver ([1]; 24 h after administration): 1.55 ± 0.32 % ID/g
Lung ([1]; 24 h after administration): 0.97 ± 0.15 % ID/g
Muscle ([1]; 24 h after administration): 0.21 ± 0.07 % ID/g
Pancreas ([1]; 24 h after administration): 0.71 ± 0.10 % ID/g
Spleen ([1]; 24 h after administration): 3.37 ± 0.75 % ID/g
Stomach (% ID) ([1]; 24 h after administration): 0.16 ± 0.05 % ID
Blood ([1]; 48 h after administration): 0.27 ± 0.16 % ID/g
Brain ([1]; 48 h after administration): 0.03 ± 0.02 % ID/g
Heart ([1]; 48 h after administration): 0.32 ± 0.05 % ID/g
Intestine ([1]; 48 h after administration): 0.79 ± 0.21 % ID/g
Kidney ([1]; 48 h after administration): 8.58 ± 2.02 % ID/g
LNCaP Tumor ([1]; 48 h after administration): 1.69 ± 0.77 % ID/g
Liver ([1]; 48 h after administration): 1.28 ± 0.16 % ID/g
Lung ([1]; 48 h after administration): 0.66 ± 0.24 % ID/g
Muscle ([1]; 48 h after administration): 0.15 ± 0.06 % ID/g
Pancreas ([1]; 48 h after administration): 0.71 ± 0.17 % ID/g
Spleen ([1]; 48 h after administration): 2.63 ± 0.83 % ID/g
Stomach (% ID) ([1]; 48 h after administration): 0.07 ± 0.02 % ID
Blood ([1]; 96 h after administration): 0.14 ± 0.04 % ID/g
Brain ([1]; 96 h after administration): 0.09 ± 0.05 % ID/g
Heart ([1]; 96 h after administration): 0.40 ± 0.12 % ID/g
Intestine ([1]; 96 h after administration): 0.41 ± 0.17 % ID/g
Kidney ([1]; 96 h after administration): 7.04 ± 3.28 % ID/g
LNCaP Tumor ([1]; 96 h after administration): 1.05 ± 0.03 % ID/g
Liver ([1]; 96 h after administration): 1.59 ± 0.57 % ID/g
Lung ([1]; 96 h after administration): 0.70 ± 0.15 % ID/g
Muscle ([1]; 96 h after administration): 0.14 ± 0.08 % ID/g
Pancreas ([1]; 96 h after administration): 0.85 ± 0.39 % ID/g
Spleen ([1]; 96 h after administration): 2.82 ± 0.87 % ID/g
Stomach (% ID) ([1]; 96 h after administration): 0.10 ± 0.03 % ID
Blood ([1]; 192 h after administration): 0.07 ± 0.03 % ID/g
Brain ([1]; 192 h after administration): 0.04 ± 0.00 % ID/g
Heart ([1]; 192 h after administration): 0.33 ± 0.01 % ID/g
Intestine ([1]; 192 h after administration): 0.13 ± 0.02 % ID/g
Kidney ([1]; 192 h after administration): 3.47 ± 1.24 % ID/g
LNCaP Tumor ([1]; 192 h after administration): 0.83 ± 0.11 % ID/g
Liver ([1]; 192 h after administration): 1.20 ± 0.09 % ID/g
Lung ([1]; 192 h after administration): 0.67 ± 0.05 % ID/g
Muscle ([1]; 192 h after administration): 0.14 ± 0.09 % ID/g
Pancreas ([1]; 192 h after administration): 1.04 ± 0.18 % ID/g
Spleen ([1]; 192 h after administration): 3.46 ± 0.32 % ID/g
Stomach (% ID) ([1]; 192 h after administration): 0.05 ± 0.00 % ID
retention in blood / accumulation at the LNCaP tumor against the comparator (in words) ([1]; any time point): less accumulated
tumor/kidney ratio compared with [^111In]In-PSMA-DA1 (in words) ([1]; mouse, in vivo): lower
radioactivity accumulation at the LNCaP tumor in SPECT/CT (LNCaP tumor): lower than at the kidney
Structure (SMILES): O=C([O-])CN1CCN(C(CCC(=O)NCCCC[C@H](NC(=O)N[C@@H](CCC(=O)O)C(=O)O)C(=O)O)C(=O)[O-])CCN(CC(=O)[O-])CCN(C(CCC(=O)Nc2ccccc2)C(=O)[O-])CC1.[111In+3] (stereo partly drawn) [[^111In]In-PSMA-DB, reference compound]
